From ChEMBL document CHEMBL1130930, “In vitro anti-human immunodeficiency virus (HIV) activity of the chromanone derivative, 12-oxocalanolide A, a novel NNRTI” (Bioorg Med Chem Lett, 1998)
The source made the active and inactive calls. The rule behind the calls is not given here.

Key:
CEM-SS [1] = assay: Compound was evaluated for the antiviral activity against SIV delta in CEM-SS cells; assay type: functional, cell-based, Homo sapiens
CEM-SS [2] = assay: Compound was evaluated for the antiviral activity against HIV-1 strain RF in CEM-SS cells; assay type: functional, cell-based, Homo sapiens
CEM-SS [3] = assay: (§1) Compound was evaluated for the antiviral activity against HIV-1 strain IIIB in CEM-SS cells; assay type: functional, cell-based, Homo sapiens
CEM-SS [4] = assay: Compound was evaluated for the antiviral activity against HIV-1 strain SK1 in CEM-SS cells; assay type: functional, cell-based, Homo sapiens
[5] = Therapeutic index against SIV delta in CEM-SS cells was expressed as IC50/EC50; assay type: cell-based; conditions: simian immunodeficiency virus; for TI: cem-ss
[6] = Therapeutic index against HIV-2 strain ROD in CEM-SS cells was expressed as IC50/EC50; assay type: organism-based; conditions: human immunodeficiency virus 2, CEM-SS cells infected with HIV-2 strain ROD; read-out: TI
CEM-SS [7] = assay: Compound was evaluated for the antiviral activity against HIV-2 strain ROD in CEM-SS cells; assay type: functional, Homo sapiens
[8] = Therapeutic index against HIV-1 strain SK1 in CEM-SS cells was expressed as IC50/EC50; assay type: cell-based, Human immunodeficiency virus 1; conditions: for selectivity ratio: human immunodeficiency virus 1, CEM-SS cells infected with HIV-1 strain SK1, read-out: TI; for TI: human immunodeficiency virus 1, cem-ss
CEM-SS [9] = assay: as §1; assay type: functional; conditions: Homo sapiens
[10] = Therapeutic index against HIV-1 strain RF in CEM-SS cells was expressed as IC50/EC50; assay type: organism-based, Human immunodeficiency virus 1; conditions: for TI: human immunodeficiency virus 1, cem-ss
[11] = Therapeutic index against HIV-1 strain IIIB in CEM-SS cells was expressed as IC50/EC50; assay type: cell-based, Human immunodeficiency virus 1; conditions: for TI: human immunodeficiency virus 1, cem-ss
[12] = system: Human immunodeficiency virus 1; assay: Compound was evaluated for the antiviral activity against compound resistant virus isolate Y181C with amino acid changes in the HIV-1 reverse transcriptase (RT); assay type: functional, organism-based
[13] = system: Human immunodeficiency virus 1; assay: Compound was evaluated for the antiviral activity against compound resistant virus isolate K101E with amino acid changes in the HIV-1 reverse transcriptase (RT); assay type: functional, organism-based
[14] = system: Human immunodeficiency virus 1; assay: Compound was evaluated for the antiviral activity against compound resistant virus isolate P236L with amino acid changes in the HIV-1 reverse transcriptase (RT); assay type: functional, organism-based
AA5 = assay: (§2) Compound was evaluated for the anti-HIV activity against HIV strain IIIB in AA5 EBV-infected B-cell; assay type: functional, cell-based; conditions: Homo sapiens
[15] = system: Human immunodeficiency virus 1; assay: Compound was evaluated for the antiviral activity against compound resistant virus isolate 4 x AZT with amino acid changes in the HIV-1 reverse transcriptase (RT); assay type: functional, organism-based
[16] = system: Human immunodeficiency virus 1; assay: Compound was evaluated for the antiviral activity against compound resistant virus isolate K103N with amino acid changes in the HIV-1 reverse transcriptase (RT); assay type: functional, organism-based
Homo sapiens [17] = species: Homo sapiens; assay: Compound was evaluated for the anti-HIV activity against HIV strain ADA in monocyte macrophages; assay type: functional, organism-based
Homo sapiens [18] = species: Homo sapiens; assay: Compound was evaluated for the anti-HIV activity against HIV strain TEKI in fresh peripheral blood mononuclear cell (PBMC). Value was expressed as EC50; assay type: functional, organism-based
U-937 = assay: (§3) Compound was evaluated for the anti-HIV activity against HIV strain IIIB in U937 monocytic cell; assay type: functional, cell-based; conditions: Homo sapiens
CCRF-CEM [19] = assay: Compound was evaluated for the anti-HIV activity against HIV strain SK1 in CEM-SS T-cells; assay type: functional, cell-based, Homo sapiens
MT2 = assay: Compound was evaluated for the anti-HIV activity against HIV strain IIIB in MT2 T-cells; assay type: functional, cell-based, Homo sapiens
[20] = system: Human immunodeficiency virus 1; assay: Compound was evaluated for the antiviral activity against compound resistant virus isolate M184I with amino acid changes in the HIV-1 reverse transcriptase (RT); assay type: functional, organism-based
Homo sapiens [21] = species: Homo sapiens; assay: Compound was evaluated for the anti-HIV activity against HIV strain ROJO in fresh peripheral blood mononuclear cell (PBMC); assay type: functional, organism-based
CEM-SS [22] = assay: Compound was evaluated for the anti-HIV activity against HIV strain IIIB in CEM-SS Value was expressed as EC50; assay type: functional, cell-based; conditions: Homo sapiens
[23] = Compound was evaluated for the anti-HIV activity against HIV strain BaL in monocyte; assay type: functional; conditions: Homo sapiens
[24] = system: Human immunodeficiency virus 1; assay: Compound was evaluated for the antiviral activity against resistant virus isolate IIIB with amino acid changes in the HIV-1 reverse transcriptase (RT); assay type: functional, organism-based
CEM-SS [25] = assay: Compound was evaluated for the antiviral activity against HIV-1 strain SK1 in CEM-SS cells; IA: Inactive; assay type: functional, cell-based; conditions: Homo sapiens
[26] = system: Human immunodeficiency virus 1; assay: Compound was evaluated for the antiviral activity against compound resistant virus isolate Y188H with amino acid changes in the HIV-1 reverse transcriptase (RT); assay type: functional, organism-based
[27] = system: Human immunodeficiency virus 1; assay: Compound was evaluated for the antiviral activity against compound resistant virus isolate L100I with amino acid changes in the HIV-1 reverse transcriptase (RT); assay type: functional, organism-based
[28] = system: Human immunodeficiency virus 1; assay: Compound was evaluated for the antiviral activity against compound resistant virus isolate Y181C/K103N with amino acid changes in the HIV-1 reverse transcriptase (RT); assay type: functional, organism-based
[29] = system: Human immunodeficiency virus 1; assay: Compound was evaluated for the antiviral activity against compound resistant virus isolate K103E with amino acid changes in the HIV-1 reverse transcriptase (RT)
[30] = system: Human immunodeficiency virus 1; assay: Compound was evaluated for the antiviral activity against compound resistant virus isolate T1391 with amino acid changes in the HIV-1 reverse transcriptase (RT); assay type: functional, organism-based
Homo sapiens [31] = species: Homo sapiens; assay: Compound was evaluated for the anti-HIV activity against HIV strain BaL in monocyte macrophages; assay type: functional, organism-based
Homo sapiens [32] = species: Homo sapiens; assay: Compound was evaluated for the anti-HIV activity against HIV strain TEKI in fresh peripheral blood mononuclear cell (PBMC); assay type: functional, organism-based
B-cell = assay: as §2; assay type: functional, cell-based; conditions: Homo sapiens
CCRF-CEM [33] = assay: Compound was evaluated for the anti-HIV activity against HIV strain IIIB in 174 x CEM T-cell:B-cell fusion; assay type: functional, cell-based; conditions: Homo sapiens
[34] = system: Human immunodeficiency virus 1; assay: Compound was evaluated for the antiviral activity against compound resistant virus isolate V1081 with amino acid changes in the HIV-1 reverse transcriptase (RT); assay type: functional, organism-based
[35] = as §3; assay type: functional, cell-based; conditions: Homo sapiens, U-937
CCRF-CEM [36] = assay: Compound was evaluated for the anti-HIV activity against HIV strain IIIB in CEM-SS T-cells; assay type: functional, cell-based; conditions: Homo sapiens

Nc1ccn([C@H]2CC[C@@H](CO)O2)c(=O)n1 [ZALCITABINE]
EC50 (CEM-SS [1]; Homo sapiens, CEM-SS): 190 nM | IC50 (CEM-SS [1]; Homo sapiens, CEM-SS): > 5000 nM | EC50 (CEM-SS [2]; Homo sapiens, CEM-SS): 50 nM | IC50 (CEM-SS [2]; Homo sapiens, CEM-SS): > 5000 nM | EC50 (CEM-SS [3]; Homo sapiens, CEM-SS): 20 nM | EC50 (CEM-SS [4]; Homo sapiens, CEM-SS): 50 nM | IC50 (CEM-SS [4]; Homo sapiens, CEM-SS): > 5000 nM | selectivity ratio ([5]; CEM-SS cells infected with SIV delta, read-out: TI): > 26 | selectivity ratio [6]: > 333 | EC25 (CEM-SS [7]; Homo sapiens, CEM-SS, read-out: EC25): 30 nM | IC25 (CEM-SS [7]; Homo sapiens, CEM-SS, read-out: IC25): > 10000 nM | selectivity ratio [8]: > 100 | EC25 (CEM-SS [9]): > 5000 nM | selectivity ratio ([10]; human immunodeficiency virus 1, CEM-SS cells infected with HIV-1 strain RF, read-out: TI): > 100 | selectivity ratio ([11]; human immunodeficiency virus 1, CEM-SS cells infected with HIV-1 strain IIIB, read-out: TI): > 250

CCCc1cc(=O)oc2c3c(c4c(c12)OC(C)(C)C=C4)O[C@H](C)[C@@H](C)C3=O (racemic)
IC50 (CEM-SS [1]; cem-ss): 6600 nM | EC50 (CEM-SS [2]; cem-ss): 400 nM | IC50 (CEM-SS [2]; cem-ss): 5800 nM | EC50 [12]: 590 nM | EC50 [13]: > 100000 nM | EC50 [14]: 2030 nM | EC50 (AA5): 2800 nM | EC50 [15]: 3600 nM | EC50 (CEM-SS [3]; cem-ss): 510 nM | IC50 (CEM-SS [3]; cem-ss): 5600 nM | EC50 [16]: > 100000 nM | IC50 (CEM-SS [4]; cem-ss): 6300 nM | EC50 (Homo sapiens [17]): 330 nM | TI [5]: 5 | EC25 (CEM-SS [7]): 5570 nM | IC25 (CEM-SS [7]): 13800 nM | TI [8]: 37 | EC50 (Homo sapiens [18]): > 10000 nM | EC50 (U-937): 3000 nM | EC50 (CCRF-CEM [19]): 270 nM | EC50 (MT2): 560 nM | EC50 [20]: 530 nM | TI [10]: 14 | EC50 (Homo sapiens [21]): 2180 nM | EC50 (CEM-SS [22]): 520 nM | TI [11]: 11 | EC50 [23]: 510 nM | EC50 [24]: 320 nM

CCCc1cc(=O)oc2c3c(c4c(c12)OC(C)(C)C=C4)O[C@H](C)[C@@H](C)[C@@H]3O [CALANOLIDE A]
EC50 (CEM-SS [2]; cem-ss): 170 nM | EC25 (CEM-SS [25]): inactive | EC50 (CEM-SS [3]; Homo sapiens, CEM-SS): 140 nM

Cc1cn([C@H]2C[C@H](N=[N+]=[N-])[C@@H](CO)O2)c(=O)[nH]c1=O [ZIDOVUDINE]
EC50 [26]: < 3 nM | EC50 [27]: < 3 nM | EC50 ([12]; Human immunodeficiency virus 1): 6 nM | EC50 ([14]; Human immunodeficiency virus 1): […] | EC50 [28]: < 30 nM | EC50 [29]: 4 nM | EC50 ([15]; Human immunodeficiency virus 1): > 1000 nM | EC50 [30]: 40 nM | EC50 ([20]; Human immunodeficiency virus 1): 10 nM | EC50 ([24]; Human immunodeficiency virus 1): 9 nM

CCCc1cc(=O)oc2c3c(c4c(c12)OC(C)(C)C=C4)O[C@H](C)[C@@H](C)C3=O (stereo in doubt; (+)-2)
EC50 [26]: > 100000 nM | EC50 [27]: > 100000 nM | EC50 (CEM-SS [1]; cem-ss): 1660 nM | EC50 (CEM-SS [2]; cem-ss): 900 nM | EC50 (Homo sapiens [31]): 2190 nM | EC50 [12]: 2100 nM | EC50 (Homo sapiens [32]): > 10000 nM | EC50 [13]: 26400 nM | EC50 [14]: 6760 nM | EC50 [28]: 6190 nM | EC50 (B-cell): > 10000 nM | EC50 ([15]; Human immunodeficiency virus 1): 2730 nM | EC50 (CEM-SS [3]; cem-ss): 1000 nM | EC50 [16]: 30600 nM | EC50 (CEM-SS [4]; cem-ss): 170 nM | EC50 (CCRF-CEM [33]): > 10000 nM | EC50 [30]: > 100000 nM | EC50 (Homo sapiens [17]): 1760 nM | TI [5]: 6 | selectivity ratio [6]: 2 | EC25 (CEM-SS [7]): 15900 nM | IC25 (CEM-SS [7]): 34800 nM | TI [8]: > 58 | EC50 [34]: > 100000 nM | EC50 [35]: > 10000 nM | EC50 (CCRF-CEM [19]): 620 nM | EC50 (MT2): 2620 nM | EC50 [20]: 60500 nM | TI [10]: > 11 | EC50 (Homo sapiens [21]; Homo sapiens): 2660 nM | TI [11]: > 10 | EC50 [24]: 1470 nM | EC50 (CCRF-CEM [36]): 1090 nM

CCCc1cc(=O)oc2c3c(c4c(c12)OC(C)(C)C=C4)O[C@H](C)[C@@H](C)C3=O (stereo in doubt; (-)-2)
IC50 (CEM-SS [1]; Homo sapiens, CEM-SS): > 10000 nM | EC50 (CEM-SS [1]; cem-ss): 6120 nM | IC50 (CEM-SS [2]; Homo sapiens, CEM-SS): > 10000 nM | EC50 (CEM-SS [2]; cem-ss): 3410 nM | IC50 (CEM-SS [3]; Homo sapiens, CEM-SS): > 10000 nM | EC50 (CEM-SS [3]; cem-ss): 1880 nM | EC50 (CEM-SS [4]; Homo sapiens, CEM-SS): 270 nM | IC50 (CEM-SS [4]; Homo sapiens, CEM-SS): > 10000 nM | TI [5]: 2 | selectivity ratio [8]: > 37 | TI [10]: > 3 | TI [11]: > 5
